How the values were obtained:
RAW264.7 cell line = assay: Inhibition of NO production in LPS-stimulated RAW264.7 cells (GRIESS method); assay type: cell-based, mice; details: positive control, 10 ppm, RAW264.7, LPS
Procedure: In order to confirm the anti-inflammatory effect and the skin trouble-improving effect of the seven extracts obtained in Preparation Example 1, an experiment on the inhibition of nitrogen monoxide (NO) formation was conducted by the GRIESS method using RAW264.7 cell line (ATCC number: CRL-2278).
Specifically, RAW264.7 cells, which were macrophages of mice, were subcultured several times, and the cultured cells were put into a 24-well plate at a density of 3×10^5 […], and cultured for 24 hours. Subsequently, the cells were replaced with cell culture media containing the above-mentioned 7 kinds of extracts diluted to concentrations of […]. […] 100 μL of the supernatant was collected and transferred to a 96-well plate, and 100 μL of GRIESS solution was added thereto and reacted at room temperature for 10 minutes, and then the absorbance at 540 nm was measured to determine the NO inhibitory effect of the extracts. The NO production inhibition rate (%) was calculated using the following Calculation Equation 2, and the results are shown in Table 6. The experiments were each carried out three times, and the results are expressed as an average value.
Inhibition Rate of NO Production (%)={(Absorbance of negative control−Absorbance of each extract)/Absorbance of negative control}×100 [Calculation Equation 2]

[1] = tested on: human-derived fibroblasts; assay: Promotion of type 1 collagen synthesis in human fibroblasts (PICP EIA kit); assay type: cell-based; details: positive control, 52.85 ppm
Procedure: Seven kinds of extracts obtained in Preparation Example 1 were added to culture media of human-derived fibroblasts in order to confirm the effect of promoting type I collagen synthesis at the cellular level. The synthesized collagen was measured and quantitated using a PICP EIA kit (Procollagen Type I C-Peptide Enzyme Immuno Assay Kit). In order to measure the amount of synthesized collagen, the extracts of Examples 1 to 7 were added to the culture media (DMEM medium) of the fibroblasts at final concentrations of 1,000 ppm and 10,000 ppm, and cultured for 48 hours. The culture broth was collected and the degree of type 1 collagen synthesis was measured with a PICP EIA kit at 450 nm using a spectrophotometer. For the comparison of the effects, the degree of collagen synthesis was measured in the same manner for the culture medium of the fibroblasts not treated with the extract (negative control) and the culture medium (positive control) in which vitamin C was added to a final concentration of 52.85 ppm. The rate of increase in collagen production was calculated as a ratio of collagen production relative to negative control, and the results are shown in Table 3 below. The experiments were conducted four times and the results are expressed as an average value.

Compound | Inhibition Rate of NO Production (RAW264.7 cell line) [%] | Increased rate (collagen production relative to negative control) [1] [%] | Production amount of type 1 collagen ([1]; average of 4) [ng/mL]
CNC(=N)NCCC[C@H](N)C(=O)O [L-NMMA, L-NG-monomethylarginine] | 41.0 | – | –
O=C1O[C@H]([C@@H](O)CO)C(O)=C1O [Vitamin C, vitamin C] | – | 64.3 | 246.8
